Source: patent US10519162B2, “6,7-dihydropyrazolo[1,5-α]pyrazin-4(5H)-one compounds and their use as negative allosteric modulators of mGluR2 receptors” (Janssen Pharmaceutica NV, priority 2014, dated 2019)

What was measured:
[1] = molecular target: T1, human mGlu2 receptor (Homo sapiens, UniProt Q14416); assay: [35S]GTPγS binding assay (mGluR2 negative allosteric modulation, glutamate ~EC80 60 μM); format: biochemical; details: for Emax: read-out: GTPγS-hmGluR2 anGT Emax; for IC50: membranes from CHO cells transfected with human mGlu2 receptor, glutamate ~EC80 (60 μM), pIC50 = −log IC50 (M), read-out: GTPγS-hmGluR2 anGT pIC50 (converted)
T1 construct: expressed in transfected cells; host or cells: CHO cells
T1 sequence (Q14416 19-872): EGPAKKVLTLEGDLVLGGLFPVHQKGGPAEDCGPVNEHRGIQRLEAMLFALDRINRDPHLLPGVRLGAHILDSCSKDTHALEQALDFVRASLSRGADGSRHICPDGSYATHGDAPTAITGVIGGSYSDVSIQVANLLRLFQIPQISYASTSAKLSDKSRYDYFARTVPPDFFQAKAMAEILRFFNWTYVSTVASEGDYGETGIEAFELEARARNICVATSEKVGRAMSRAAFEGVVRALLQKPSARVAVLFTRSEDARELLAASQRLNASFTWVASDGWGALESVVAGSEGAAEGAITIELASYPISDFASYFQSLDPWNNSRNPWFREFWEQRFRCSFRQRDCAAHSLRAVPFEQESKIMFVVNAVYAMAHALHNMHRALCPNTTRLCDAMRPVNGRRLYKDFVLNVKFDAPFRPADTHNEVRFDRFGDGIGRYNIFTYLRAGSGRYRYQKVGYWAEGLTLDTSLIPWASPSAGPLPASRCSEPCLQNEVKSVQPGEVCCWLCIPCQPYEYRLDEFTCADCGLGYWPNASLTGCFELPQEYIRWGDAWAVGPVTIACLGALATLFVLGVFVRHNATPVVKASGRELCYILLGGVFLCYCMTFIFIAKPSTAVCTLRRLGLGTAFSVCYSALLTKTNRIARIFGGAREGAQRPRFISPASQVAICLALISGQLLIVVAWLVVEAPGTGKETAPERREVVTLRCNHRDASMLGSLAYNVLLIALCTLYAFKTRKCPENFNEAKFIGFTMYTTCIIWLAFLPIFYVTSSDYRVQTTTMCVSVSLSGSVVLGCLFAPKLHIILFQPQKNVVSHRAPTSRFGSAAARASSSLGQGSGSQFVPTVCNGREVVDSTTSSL
Protocol: 1) [^35S]GTPγS Binding Assay
[^35S]GTPγS Binding Assay
Total reaction volume was 200 μl. […] Membrane-bound radioactivity was counted in a Topcount.

[2] = system: rats; assay: Reversal of the effect of the mGluR2 PAM JNJ-42153605-induced inhibition of scopolamine-induced hyperlocomotion (SCOP JNJ-42153605); format: in vivo, rat; details: PO (oral route), rats, reversal criterion total distance >1500 cm; for ED50: Rattus norvegicus
Protocol: 2) Reversal of the Effect of the mGluR2 PAM JNJ-42153605-Induced Inhibition of Scopolamine-Induced Hyperlocomotion Apparatus
Motor activity was measured in microprocessor-based motor activity arenas (closed gray PVC cylinders with a height of 39 cm and a diameter of 31 cm). Each arena was placed on an infrared LED (8×8 LEDs) lit box (white PVC squared box; 40×40 cm^2; height 12.5 cm. An infrared-sensitive tube camera and a white light source were mounted to the ceiling above the observation chamber to track the animal. The total distance traveled (cm) was recorded and analyzed using the Noldus Ethovision XT Video Tracking System (Version 7.0.418; Noldus, Wageningen, The Netherlands). The intensity of the light within the activity cages (measured in the centre at the level of the floor) ranged between 4 and 8 LUX.
The rats were pretreated with test compound or vehicle at 60 min before the start of the activity recordings and placed into individual cages. The rats were challenged with JNJ-42153605 (3-(cyclopropylmethyl)-7-(4-phenylpiperidin-1-yl)-8-(trifluoromethyl)[1,2,4]triazolo[4,3-a]pyridine; WO2010/130424; Cid et al. J. Med. Chem. 2012, 55, 8770-8789) (20 mg/kg, i.v.) 30 min before the start of the activity recording combined with scopolamine (0.16 mg/kg, i.v.) just before the start of the activity measurements. Immediately after the injection of scopolamine, the rats were placed into the activity monitors and total distance travelled over the first 30 min was measured.
Solvent-Pretreated Control Rats.
Animals receiving the combination of JNJ-42153605 and scopolamine (n=433) almost always travelled a distance of less than 1500 cm (<1500 cm) (only 2.5% of the control rats travelled a distance of more than 1500 cm (>1500 cm)). On the other hand, animals challenged with scopolamine alone (n=215) always travelled a total distance of more than 1500 cm (>1500 cm) and almost always (in 95.8% of the rats) a distance of more than 4400 cm (>4400 cm). […] For reversal of the inhibitory effect of JNJ-42153605 on the scopolamine-induced hyperlocomotion, the following all-or-none criteria were adopted: (1) reversal: total distance >1500 cm.

[3] = system: Wiga rats; assay: Induction of mydriasis (MYD); format: in vivo; details: Rattus norvegicus, PO (oral route), pupil diameter >25 units, 1-3 h post-administration
Protocol: 3) Induction of Mydriasis
The pupil diameter of Wiga rats was measured with a microscopic micrometer (1 unit=1/24 mm). Criteria for drug-induced effects: pupil diameter >25 units for mydriasis (in controls: 1.9%) 1, 2 or 3 h post-administration of the test compound (wherein the maximum pupil diameter over the full 3 h period is reported).

[4] = maximal % inhibition relative to the control glutamate response (EC80 glutamate)

## C[C@H]1CN(c2ccc(Cl)c(Cl)c2)C(=O)c2c(NC(=O)c3cccnc3N)cnn21 [Co. No. 185]
[1]; [4]
  Emax: 113%
[1]
  IC50: 1.07e-09 M
[2]
  ED50: 0.08 mg/kg
[3]
  ED50: > 10 mg/kg
other
  melting point: 193.17 °C

## C[C@H]1CN(c2ccc(C(F)(F)F)c(Cl)c2)C(=O)c2c(NC(=O)c3cccnc3)cnn21 [Co. No. 100]
[1]; [4]
  Emax: 106%
[1]
  IC50: 2.19e-09 M
[2]
  ED50: 0.8 mg/kg
[3]
  ED50: > 2.5 mg/kg
other
  melting point: 157.47 °C

## Cc1cnc(N)c(C(=O)Nc2cnn3c2C(=O)N(c2ccc(C(F)(F)F)cc2)C[C@@H]3C)c1 [Co. No. 191]
[1]; [4]
  Emax: 112%
[1]
  IC50: 1.95e-09 M
[2]
  ED50: 0.318 mg/kg
[3]
  ED50: > 10 mg/kg
other
  melting point: 222.34 °C

## Cc1cc(C(=O)Nc2cnn3c2C(=O)N(c2ccc(C(F)(F)F)c(C)c2)C[C@@H]3C)cc(C)n1 [Co. No. 113]
[1]; [4]
  Emax: 107%
[1]
  IC50: 2.04e-09 M
[2]
  ED50: 0.5 mg/kg
[3]
  ED50: > 40 mg/kg
other
  melting point: 164.61 °C

## C[C@H]1CN(c2ccc(OC(F)(F)F)cc2)C(=O)c2c(NC(=O)c3cccnc3)cnn21 [Co. No. 178]
[1]; [4]
  Emax: 105%
[1]
  IC50: 1.48e-08 M
[2]
  ED50: 0.318 mg/kg
[3]
  ED50: > 10 mg/kg
other
  melting point: 125.45 °C

## C[C@H]1CN(c2ccc(C(F)(F)F)c(Cl)c2)C(=O)c2c(NC(=O)c3cccnc3N)cnn21 [Co. No. 182]
[1]; [4]
  Emax: 110%
[1]
  IC50: 7.08e-10 M
[2]
  ED50: 0.0985 mg/kg
[3]
  ED50: > 10 mg/kg
other
  melting point: 142.58 °C

## Cc1cc(C(=O)Nc2cnn3c2C(=O)N(c2ccc(C(F)(F)F)c(Cl)c2)C[C@@H]3C)cc(C)n1 [Co. No. 172]
[1]; [4]
  Emax: 110%
[1]
  IC50: 1.32e-09 M
[2]
  ED50: 0.32 mg/kg
[3]
  ED50: > 40 mg/kg

## Cc1cc(C(=O)Nc2cnn3c2C(=O)N(c2ccc(C(F)(F)F)cc2)C[C@@H]3C)cnc1N (racemic) [Co. No. 187]
[1]; [4]
  Emax: 109%
[1]
  IC50: 1.51e-09 M
[2]
  ED50: 0.0794 mg/kg
[3]
  ED50: > 10 mg/kg
other
  melting point: 277.76 °C

## Cc1cc(N2C[C@H](C)n3ncc(NC(=O)c4cccnc4N)c3C2=O)ccc1C(F)(F)F [Co. No. 184]
[1]; [4]
  Emax: 110%
[1]
  IC50: 1.23e-09 M
[2]
  ED50: 0.2 mg/kg
[3]
  ED50: > 10 mg/kg
other
  melting point: 175.63 °C

## Cc1cnc(N)c(C(=O)Nc2cnn3c2C(=O)N(c2ccc(C(F)(F)F)c(C)c2)C[C@@H]3C)c1 [Co. No. 197]
[1]; [4]
  Emax: 108%
[1]
  IC50: 1.32e-09 M
[2]
  ED50: 0.13 mg/kg
[3]
  ED50: > 10 mg/kg
other
  melting point: 190.13 °C

## C[C@H]1CN(c2ccc(S(F)(F)(F)(F)F)cc2)C(=O)c2c(NC(=O)c3cccnc3)cnn21 [Co. No. 175]
[1]; [4]
  Emax: 108%
[1]
  IC50: 3.16e-09 M
[2]
  ED50: 0.318 mg/kg
[3]
  ED50: > 10 mg/kg
other
  melting point: 205.19 °C

## Cc1ccnc(N)c1C(=O)Nc1cnn2c1C(=O)N(c1ccc(C(F)(F)F)cc1)C[C@@H]2C (racemic) [Co. No. 192]
[1]; [4]
  Emax: 110%
[1]
  IC50: 2.69e-08 M
[2]
  ED50: > 0.63 mg/kg
other
  melting point: 177.39 °C

## COc1cncc(C(=O)Nc2cnn3c2C(=O)N(c2ccc(C(F)(F)F)cc2)C[C@@H]3C)c1C [Co. No. 122]
[1]; [4]
  Emax: 105%
[1]
  IC50: 1.91e-07 M
[2]
  ED50: > 0.63 mg/kg
other
  melting point: 181.87 °C

## COc1cc(N2C[C@H](C)n3ncc(NC(=O)c4cccnc4)c3C2=O)ccc1C(F)(F)F [Co. No. 147]
[1]; [4]
  Emax: 106%
[1]
  IC50: 1.07e-08 M
[2]
  ED50: > 0.63 mg/kg
other
  melting point: 186.11 °C

## C[C@H]1CN(c2ccc(Cl)cc2)C(=O)c2c(NC(=O)c3cccnc3N)cnn21 [Co. No. 198]
[1]; [4]
  Emax: 109%
[1]
  IC50: 4.07e-09 M
[2]
  ED50: > 0.63 mg/kg
other
  melting point: 209.11 °C

## C[C@H]1CN(c2ccc(C(F)(F)F)cc2)C(=O)c2c(NC(=O)c3cccc(S(N)(=O)=O)c3)cnn21 [Co. No. 177]
[1]; [4]
  Emax: 109%
[1]
  IC50: 1.66e-09 M
[2]
  ED50: > 0.63 mg/kg
other
  melting point: 280.43 °C

## COc1cncc(C(=O)Nc2cnn3c2C(=O)N(c2ccc(C(F)(F)F)c(C)c2)C[C@@H]3C)c1 [Co. No. 151]
[1]; [4]
  Emax: 106%
[1]
  IC50: 3.16e-09 M
[2]
  ED50: > 0.63 mg/kg
other
  melting point: 135.98 °C

## C[C@H]1CN(c2ccc(C(F)(F)F)c(F)c2)C(=O)c2c(NC(=O)c3cccnc3)cnn21 [Co. No. 126]
[1]; [4]
  GTPγS-hmGluR2 anGT Emax: 110%
[1]
  IC50: 4.17e-09 M
[2]
  ED50 SCOP JNJ-42153605: >0.63 mg/kg
other
  melting point: 226.14 °C

## COc1cncc(C(=O)Nc2cnn3c2C(=O)N(c2ccc(Cl)c(Cl)c2)C[C@@H]3C)c1 [Co. No. 149]
[1]; [4]
  Emax: 107%
[1]
  IC50: 1.66e-09 M
[2]
  ED50: > 0.63 mg/kg
other
  melting point: 184.46 °C

## C[C@H]1CN(c2ccc(C(F)(F)F)cc2)C(=O)c2c(NC(=O)c3cnccn3)cnn21 [Co. No. 35]
[1]; [4]
  Emax: 112%
[1]
  IC50: 8.13e-09 M
[2]
  ED50: 1.26 mg/kg
other
  melting point: 219.91 °C

## Cc1cc(C(=O)Nc2cnn3c2C(=O)N(c2ccc(Cl)cc2)C[C@@H]3C)cc(N)n1 [Co. No. 203]
[1]; [4]
  Emax: 105%
[1]
  IC50: 1.12e-08 M
[2]
  ED50: > 0.63 mg/kg
other
  melting point: 223.01 °C

## COc1cncc(C(=O)Nc2cnn3c2C(=O)N(c2ccc(C(F)(F)F)c(F)c2)C[C@@H]3C)c1 [Co. No. 153]
[1]; [4]
  Emax: 106%
[1]
  IC50: 1.35e-08 M
[2]
  ED50: > 0.63 mg/kg
other
  melting point: 143.17 °C

## Cc1cncc(C(=O)Nc2cnn3c2C(=O)N(c2ccc(C(F)(F)F)cc2)C[C@@H]3C)c1 [Co. No. 99]
[1]; [4]
  Emax: 114%
[1]
  IC50: 3.98e-09 M
[2]
  ED50: > 2.5 mg/kg
other
  melting point: 165.21 °C

## COc1cc(N2C[C@H](C)n3ncc(NC(=O)c4cncc(C)c4)c3C2=O)ccc1C(F)(F)F [Co. No. 117]
[1]; [4]
  Emax: 104%
[1]
  IC50: 8.51e-09 M
[2]
  ED50: > 0.63 mg/kg
other
  melting point: 166.32 °C

## C[C@H]1CN(c2ccc(S(F)(F)(F)(F)F)cc2)C(=O)c2c(NC(=O)c3cccnc3N)cnn21 [Co. No. 202]
[1]; [4]
  Emax: 108%
[1]
  IC50: 1.15e-09 M
[2]
  ED50: 0.2 mg/kg
other
  melting point: 223.96 °C
